The values that follow come from patent US7045532B2 (Millennium Pharmaceuticals, Inc., priority 1999, dated 2006).

pKi: −log10 of the molar value. Where two headings read alike, the source gives them in different places.

Test [1] addresses ACE-2 (Rattus norvegicus, UniProt Q5EGZ1). Briefly: ACE-2 Competitive Substrate Assay, rat ACE-2. The test is classed as biochemical. To be noted: Ki class, compounds tested in 5% DMSO.
The target in the next test is T1, ACE (Sigma, A2580) (Sus scrofa, UniProt F1RRW5).
T1 construct: ACE from porcine kidney; purchased Sigma A2580; host or cells: porcine kidney
T1 sequence (F1RRW5 34-1309): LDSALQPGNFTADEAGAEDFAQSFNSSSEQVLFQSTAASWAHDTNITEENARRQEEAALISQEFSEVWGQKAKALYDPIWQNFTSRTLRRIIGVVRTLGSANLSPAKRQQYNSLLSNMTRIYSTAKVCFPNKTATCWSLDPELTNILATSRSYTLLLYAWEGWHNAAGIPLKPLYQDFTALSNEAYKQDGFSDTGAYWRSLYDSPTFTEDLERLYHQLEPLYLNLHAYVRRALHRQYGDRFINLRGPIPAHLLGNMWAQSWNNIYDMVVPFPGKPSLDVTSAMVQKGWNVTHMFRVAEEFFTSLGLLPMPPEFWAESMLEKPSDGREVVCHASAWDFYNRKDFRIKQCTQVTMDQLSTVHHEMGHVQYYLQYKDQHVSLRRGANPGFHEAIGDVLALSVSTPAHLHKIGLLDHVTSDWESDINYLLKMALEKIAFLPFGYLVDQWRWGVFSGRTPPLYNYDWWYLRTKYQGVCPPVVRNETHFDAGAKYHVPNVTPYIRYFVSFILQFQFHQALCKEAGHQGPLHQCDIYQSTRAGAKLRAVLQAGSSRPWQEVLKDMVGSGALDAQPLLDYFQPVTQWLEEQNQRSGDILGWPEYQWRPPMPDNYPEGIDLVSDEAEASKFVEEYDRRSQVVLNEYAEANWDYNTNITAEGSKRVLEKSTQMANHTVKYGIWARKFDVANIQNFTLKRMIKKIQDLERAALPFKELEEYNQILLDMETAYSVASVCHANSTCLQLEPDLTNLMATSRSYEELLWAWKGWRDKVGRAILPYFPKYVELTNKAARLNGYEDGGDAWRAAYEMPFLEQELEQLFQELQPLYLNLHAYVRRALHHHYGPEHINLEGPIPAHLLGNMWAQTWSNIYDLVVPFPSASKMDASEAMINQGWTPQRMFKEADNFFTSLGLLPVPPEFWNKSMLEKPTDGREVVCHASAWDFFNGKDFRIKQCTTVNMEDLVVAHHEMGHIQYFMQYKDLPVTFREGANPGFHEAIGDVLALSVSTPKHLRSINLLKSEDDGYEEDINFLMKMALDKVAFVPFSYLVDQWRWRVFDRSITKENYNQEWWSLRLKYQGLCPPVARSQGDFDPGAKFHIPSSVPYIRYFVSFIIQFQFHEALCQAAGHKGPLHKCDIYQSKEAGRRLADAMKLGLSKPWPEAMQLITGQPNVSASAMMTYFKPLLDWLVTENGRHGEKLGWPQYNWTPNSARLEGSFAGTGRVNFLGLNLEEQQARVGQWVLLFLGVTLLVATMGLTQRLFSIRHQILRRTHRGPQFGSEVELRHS
Briefly: ACE enzymatic activity assay. The format is biochemical, porcine. The conditions noted are these: Ki class; compounds tested in 5% DMSO, 12 concentrations. The essentials: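 ACE (1 nM final) in 50 mM HEPES, 300 mM NaCl, 0.01% Brij-35, pH 7.5, with compound in 5% DMSO at 12 concentrations, 25 °C. Substrate cleavage run ~30 min, stopped with EDTA; fluorescence read at excitation 320 nm, emission 405 nm.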

In the next test the target is T2, Carboxypeptidase A (Bos taurus, UniProt P00730).
T2 sequence (P00730 111-419): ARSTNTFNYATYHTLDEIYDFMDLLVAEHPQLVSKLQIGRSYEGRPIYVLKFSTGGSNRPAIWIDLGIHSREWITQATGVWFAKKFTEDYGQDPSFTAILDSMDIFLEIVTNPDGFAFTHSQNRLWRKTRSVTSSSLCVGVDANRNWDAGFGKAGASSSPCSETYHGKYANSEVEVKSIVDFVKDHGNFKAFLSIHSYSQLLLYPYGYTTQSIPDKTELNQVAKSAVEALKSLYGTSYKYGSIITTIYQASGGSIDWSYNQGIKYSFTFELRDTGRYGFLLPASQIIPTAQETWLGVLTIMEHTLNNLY
As to the kind of experiment: Carboxypeptidase A activity assay. The test is classed as biochemical. To be noted: Ki class; compounds tested in 5% DMSO, 12 concentrations. The essentials:
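Bovine carboxypeptidase A activity followed at 328 nm in 5% DMSO, reaction stopped with EDTA. Activity measured at 12 compound concentrations. Ki derived from apparent Ki as Ki=Kiapp/(1+[S]/Km).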

For test [2], the target named is T3, ACE-2 (Homo sapiens, UniProt Q9BYF1).
T3 construct: a stop codon inserted after the serine immediately preceding the transmembrane domain; made in house; host or cells: CHO K1 cells (transient transfection, purified from conditioned medium)
Briefly: ACE-2 Competitive Substrate Assay (ACS Assay). The format is biochemical.

The mark [3] stands for this setting: Ki class, compounds tested in 5% DMSO, 12 compound concentrations, Ki=Kiapp/(1+[S]/Km), read-out: Human ACE-2 Activity.
Where [4] appears, read: Table 3, very good ACE-2 inhibiting compounds, species not given, read-out: ACE-2 Activity, Ki.
[5] abbreviates: Ki class, compounds tested in 5% DMSO, 12 concentrations, read-out: Human ACE-2 Activity.

T3 sequence (Q9BYF1 18-740 limits assumed): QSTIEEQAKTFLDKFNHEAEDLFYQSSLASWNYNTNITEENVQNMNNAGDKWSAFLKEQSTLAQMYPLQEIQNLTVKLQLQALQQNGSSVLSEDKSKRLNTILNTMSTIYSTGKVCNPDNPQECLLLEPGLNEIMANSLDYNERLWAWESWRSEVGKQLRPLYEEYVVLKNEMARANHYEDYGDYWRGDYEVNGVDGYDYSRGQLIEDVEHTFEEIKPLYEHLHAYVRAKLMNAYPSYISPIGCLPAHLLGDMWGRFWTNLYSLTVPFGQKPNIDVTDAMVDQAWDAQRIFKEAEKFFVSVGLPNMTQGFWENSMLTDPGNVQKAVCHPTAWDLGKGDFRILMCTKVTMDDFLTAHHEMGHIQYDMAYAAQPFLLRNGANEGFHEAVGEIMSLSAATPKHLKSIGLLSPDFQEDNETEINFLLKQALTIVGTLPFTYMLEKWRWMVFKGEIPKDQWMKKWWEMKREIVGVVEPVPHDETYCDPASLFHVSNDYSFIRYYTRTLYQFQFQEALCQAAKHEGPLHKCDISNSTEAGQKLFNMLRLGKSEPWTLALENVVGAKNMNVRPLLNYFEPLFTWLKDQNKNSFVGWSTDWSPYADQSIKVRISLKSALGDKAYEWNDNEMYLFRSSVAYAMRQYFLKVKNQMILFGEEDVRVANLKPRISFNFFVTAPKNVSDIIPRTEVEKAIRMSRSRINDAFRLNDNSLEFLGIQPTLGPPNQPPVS
ACE-2 (Rattus norvegicus, UniProt Q5EGZ1), sequence (Q5EGZ1 18-805): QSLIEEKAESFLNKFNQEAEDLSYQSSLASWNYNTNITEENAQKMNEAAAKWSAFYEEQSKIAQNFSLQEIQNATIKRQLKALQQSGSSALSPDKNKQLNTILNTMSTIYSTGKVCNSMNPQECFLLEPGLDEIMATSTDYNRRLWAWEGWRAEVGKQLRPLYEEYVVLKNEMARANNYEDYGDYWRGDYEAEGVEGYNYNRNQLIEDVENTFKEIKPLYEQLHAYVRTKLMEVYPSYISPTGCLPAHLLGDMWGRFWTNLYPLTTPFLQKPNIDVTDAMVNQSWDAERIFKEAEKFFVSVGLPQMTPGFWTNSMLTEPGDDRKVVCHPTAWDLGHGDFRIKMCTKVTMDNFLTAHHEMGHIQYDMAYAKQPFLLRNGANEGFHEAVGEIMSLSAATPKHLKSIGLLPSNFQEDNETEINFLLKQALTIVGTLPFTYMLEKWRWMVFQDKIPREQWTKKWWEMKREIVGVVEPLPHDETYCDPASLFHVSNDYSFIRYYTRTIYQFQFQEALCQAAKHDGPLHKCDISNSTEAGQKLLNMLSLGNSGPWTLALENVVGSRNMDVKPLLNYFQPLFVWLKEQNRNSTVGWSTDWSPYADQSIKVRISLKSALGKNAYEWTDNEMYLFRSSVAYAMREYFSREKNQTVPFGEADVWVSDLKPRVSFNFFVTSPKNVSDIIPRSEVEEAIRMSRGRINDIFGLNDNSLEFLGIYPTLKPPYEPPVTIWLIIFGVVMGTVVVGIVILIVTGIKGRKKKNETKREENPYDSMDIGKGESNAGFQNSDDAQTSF

For the compound `CC(C)CC(N[C@@H](Cc1c[nH]cn1)C(=O)O)C(=O)O` (single isomer, unassigned) [BL, 2-[1-Carboxy-2-(1H-imidazol-4-yl)-ethylamino]4-methyl-pentanoic acid], the pKi at ACE-2 [1] (12 concentrations) is < 6.30; on ACE (Sigma, A2580) it was 4.30 to 5.00; on Carboxypeptidase A, < 4.30.

Consider `COC(=O)[C@H](Cc1c[nH]cn1)NC(CC(C)C)C(=O)O` (single isomer, unassigned) [CU, 2-[2-(1H-Imidazol-4-yl)-1-methoxycarbonyl-ethylamino]-4-methyl-pentanoic acid], for which the pKi was 6.30 to 7.00 at ACE-2 [1] (12 concentrations); < 4.30 on ACE (Sigma, A2580); < 4.30 on Carboxypeptidase A.

For `O=C(O)C(Cc1ccc(O)cc1)N[C@@H](Cc1c[nH]cn1)C(=O)O` (single isomer, unassigned) [DO, 2-[1-Carboxy-2-(4-hydroxy-phenyl)-ethylamino]-3-(1H-imidazol-4-yl)-propionicacid], the pKi was 6.30 to 7.00 at ACE-2 [1] (12 concentrations); 4.30 to 5.00 at ACE (Sigma, A2580); < 4.30 at Carboxypeptidase A.

With `CCCCC(N[C@@H](Cc1c[nH]cn1)C(=O)O)C(=O)O` (single isomer, unassigned) [EF, 2-[1-Carboxy-2-(1H-imidazol-4-yl)-ethylamino]hexanoic acid], the pKi was < 6.30 on ACE-2 [1] (12 concentrations); 4.30 to 5.00 on ACE (Sigma, A2580); < 4.30 on Carboxypeptidase A.

For `CC(C)CC(N[C@@H](Cc1cncn1Cc1ccc(F)cc1)C(=O)O)C(=O)O` (single isomer, unassigned) [II, 2-[1-Carboxy-2-[3-(4-fluoro-benzyl)-3H-imidazol-4-yl]-ethylamino]4-methyl-pentanoic acid], the pKi is > 7.00 at ACE-2 [2] (setting [3]), 7.00 to 7.30 on ACE-2 [2] (setting [4]) and > 7.00 at ACE-2 [1] (12 compound concentrations).

For `CC(C)CC(N[C@@H](Cc1cncn1Cc1cccc(Cl)c1Cl)C(=O)O)C(=O)O` (single isomer, unassigned) [IX, 2-[1-Carboxy-2-[3-(2,3-dichloro-benzyl)-3H-imidazol-4-yl]-ethylamino]4-methyl-pentanoic acid], the figures for the pKi at ACE-2 [2] (setting [3]), at ACE-2 [2] (setting [4]) and at ACE-2 [1] (12 compound concentrations) were < 6.30, > 7.30 and > 7.00, respectively.

On to `CC(C)CC(N[C@@H](Cc1cncn1Cc1cccc(C(F)(F)F)c1)C(=O)O)C(=O)O` (single isomer, unassigned) [IZ, 2-[1-Carboxy-2-[3-(3-trifluoromethyl-benzyl)-3H-imidazol-4-yl]-ethylamino]4-methyl-pentanoic acid], for which the pKi on ACE-2 [2] (setting [3]) was > 7.00; at ACE-2 [2] (setting [4]), > 7.30; on ACE-2 [1] (12 compound concentrations), > 7.00.

`CC(C)CC(N[C@@H](Cc1cncn1Cc1cc(Cl)ccc1Cl)C(=O)O)C(=O)O` (single isomer, unassigned) [JB, 2-[1-Carboxy-2-[3-(2,5-dichloro-benzyl)-3H-imidazol-4-yl]-ethylamino]4-methyl-pentanoic acid]: the pKi is > 7.00 on ACE-2 [2] (setting [3]), > 7.30 at ACE-2 [2] (setting [4]) and > 7.00 at ACE-2 [1] (12 compound concentrations).

As for `CC(C)CC(N[C@@H](Cc1cncn1Cc1ccc2c(c1)OCO2)C(=O)O)C(=O)O` (single isomer, unassigned) [JE], the pKi on ACE-2 [2] (setting [3]) was > 7.00; on ACE-2 [2] (setting [4]), > 7.30; on ACE-2 [1] (12 compound concentrations) it was > 7.00.

Take `CC(C)CC(N[C@@H](Cc1cncn1CCC1CCCCC1)C(=O)O)C(=O)O` (single isomer, unassigned) [JI, 2-[1-Carboxy-2-[3-(2-cyclohexyl-ethyl)-3H-imidazol-4-yl]-ethylamino]4-methyl-pentanoic acid]: the values for the pKi on ACE-2 [2] (setting [3]), on ACE-2 [2] (setting [4]) and at ACE-2 [1] (12 compound concentrations) were > 7.00, > 7.30 and > 7.00, respectively.

Take `CC(C)CC(N[C@@H](Cc1cncn1CCc1ccccc1)C(=O)O)C(=O)O` (single isomer, unassigned) [JK, 2-[1-Carboxy-2-[3-phenethyl-3H-imidazol-4-yl)-ethylamino]-4-methyl-pentanoic acid]: the pKi on ACE-2 [2] (setting [3]) and on ACE-2 [1] (12 compound concentrations) was > 7.00 each time.

`CC(C)CC(N[C@@H](Cc1cncn1Cc1cccc(I)c1)C(=O)O)C(=O)O` (single isomer, unassigned) [JO, 2-[1-Carboxy-2-[3-(3-iodobenzyl)-3H-imidazol-4-yl]-ethylamino]-4-methyl-pentanoic acid]: the pKi on ACE-2 [2] (setting [3]) is > 7.00; on ACE-2 [2] (setting [4]), > 7.30; at ACE-2 [1] (12 compound concentrations) it was > 7.00.

On to `CC(C)CC(N[C@@H](Cc1cncn1Cc1cccc(F)c1)C(=O)O)C(=O)O` (single isomer, unassigned) [JQ, 2-[1-Carboxy-2-[3-(3-fluoro-benzyl)-3H-imidazol-4-yl]-ethylamino]4-methyl-pentanoic acid], for which the results for the pKi on ACE-2 [2] (setting [3]), at ACE-2 [2] (setting [4]) and on ACE-2 [1] (12 compound concentrations) were > 7.00, > 7.30 and > 7.00, respectively.

For `CC(C)CC(N[C@@H](Cc1csc(-c2ccccc2)n1)C(=O)O)C(=O)O` (stereo partly shown) [IL, 2-[1-Carboxy-2-(2-phenyl-thiazol-4-yl)-ethylamino]-4-methyl-pentanoic acid], the pKi at ACE-2 [2] (setting [3]) is 6.30 to 7.00; at ACE-2 [2] (setting [4]), 7.00 to 7.30; at ACE-2 [1] (12 compound concentrations) it was > 7.00.

For the compound `CC(C)C[C@H](N[C@@H](Cc1ccn(Cc2ccccc2)n1)C(=O)O)C(=O)O` [IN, (S,S)-2-[2-(1-benzyl-1H-pyrazol-3-yl)-1-carboxy-ethylamino]-4-methyl pentanoic acid], the pKi is 6.30 to 7.00 at ACE-2 [2] (setting [3]) and > 7.00 on ACE-2 [1] (12 compound concentrations).

For the compound `CC(C)C[C@H](N[C@H](Cc1ccccc1)C(=O)O)C(=O)O` [T, 2-(1-Carboxy-2-phenyl-ethylamino)-4-methyl-pentanoic acid], the pKi on ACE-2 [2] (setting [5]) is < 6.30; at ACE (Sigma, A2580), < 4.30; at Carboxypeptidase A, 4.30 to 5.00.

With `CC(C)C[C@@H](C(=O)O)N(C)C(CCc1ccccc1)C(=O)O` (stereo partly shown) [V, 2-[(1-Carboxy-3-phenyl-propyl)-methyl-amino]-4-methyl-pentanoic acid], the pKi on ACE-2 [2] (setting [5]) was < 6.30; at ACE (Sigma, A2580) it was < 4.30; on Carboxypeptidase A, < 4.30.

As for `CCC(NC(Cc1c[nH]c2ccccc12)C(=O)O)C(=O)O` (stereo not shown) [W, 2-[1-Carboxy-2-(1H-indol-3-yl)-ethylamino]-butync acid], the pKi on ACE-2 [2] (setting [5]) is < 6.30; at ACE (Sigma, A2580), < 4.30; at Carboxypeptidase A, < 4.30.

Turning to `CCCC(N[C@H](Cc1c[nH]c2ccccc12)C(=O)O)C(=O)O` (stereo partly shown) [X, 2-[1-Carboxy-2-(1H-indol-3-yl)-ethylamino]-pentanoic acid], the pKi on ACE-2 [2] (setting [5]) is < 6.30; on ACE (Sigma, A2580), < 4.30; at Carboxypeptidase A, < 4.30.

`CSCC[C@H](NC(CCc1ccccc1)C(=O)O)C(=O)O` (stereo partly shown) [Y, 2-(1-Carboxy-3-methylsulfanyl-propylamino)-4-phenyl-butync acid]: the pKi is < 6.30 at ACE-2 [2] (setting [5]); < 4.30 at ACE (Sigma, A2580); < 4.30 on Carboxypeptidase A.

Take `CCC(N[C@@H](CCSC)C(=O)O)C(=O)O` (stereo partly shown) [Z, 2-(1-Carboxy-propylamino)-4-methylsulfanyl-butyncacid]: the pKi at ACE-2 [2] (setting [5]) is < 6.30; on ACE (Sigma, A2580) it was < 4.30; at Carboxypeptidase A it was < 4.30.
